Target: vanilloid receptor 1 (VR1/TRPV1) (Homo sapiens (Human), UniProt Q8NER1)
Assay: FLIPR assay, Ca2+ influx in CHO K1 cells transfected with the human VR1 gene
Assay type: cell-based
Conditions: compound 5 μM, % activation compared with control capsaicin 10 μM
Description: Furthermore, preference may be given to compounds according to the first aspect of the invention that cause a 50% displacement of capsaicin, which is present at a concentration of 100 nM, in a FLIPR assay with CHO K1 cells which were transfected with the human VR1 gene at a concentration of less than 2 000 nM, preferably less than 1 000 nM, particularly preferably less than 300 nM, most particularly preferably less than 100 nM, even more preferably less than 75 nM, additionally preferably less than 50 nM, most preferably less than 10 nM. In the process, the Ca^2+ influx is quantified in the FLIPR assay with the aid of a Ca^2+-sensitive dye (type Fluo-4, Molecular Probes Europe BV, Leiden, the Netherlands) in a fluorescent imaging plate reader (FLIPR, Molecular Devices, Sunnyvale, USA), as described hereinafter.
The FLIPR protocol consists of 2 substance additions during a kinetic measurement. First the compounds to be tested (5 μM) are pipetted onto the cells and the Ca^2+ influx is determined in comparison to the control (capsaicin 10 μM), providing the result as % activation and representing the compound-alone effect (calculation at peak signal related to baseline). […] After 5 min incubation, the Ca^2+ influx is related to an injection of 100 nM of capsaicin and thereby the antagonistic effect of the test compounds detected.
Desensitising agonists and antagonists lead to suppression of the Ca^2+ influx. The % inhibition is calculated compared to the maximum achievable inhibition with 10 μM of capsaicin. Triple analyses (n=3) are carried out and repeated in at least 3 independent experiments.
Starting from the percentage displacement caused by different concentrations of the compounds to be tested of general formula I, IC50 inhibitory concentrations which cause a 50-% displacement of capsaicin were calculated. Ki values for the test substances were obtained by conversion by means of the Cheng-Prusoff equation (Cheng, Prusoff; Biochem. Pharmacol. 22, 3099-3108, 1973).
Chinese hamster ovary cells (CHO K1 cells, European Collection of Cell Cultures (ECACC) United Kingdom) are stably transfected with the VR1 gene. For functional testing, these cells are plated out on poly-D-lysine-coated black 96-well plates having a clear base (BD Biosciences, Heidelberg, Germany) at a density of 25,000 cells/well. The cells are incubated overnight at 37° C. and 5% CO2 in a culture medium (Ham's F12 nutrient mixture, 10% by volume of FCS (foetal calf serum), 18 μg/ml of L-proline). The next day the cells are incubated with Fluo-4 (Fluo-4 2 μM, 0.01% by volume of Pluronic F127, Molecular Probes in HBSS (Hank's buffered saline solution), Gibco Invitrogen GmbH, Karlsruhe, Germany) for 30 min at 37° C. Subsequently, the plates are washed three times with HBSS buffer and after further incubation for 15 min at RT used for Ca^2+ measurement in a FLIPR assay. The Ca^2+-dependent fluorescence is measured before and after the addition of the substances to be tested (λex wavelength=488 nm, λem=540 nm). Quantification is carried out by measuring the highest fluorescence intensity (FC, fluorescence counts) over time.

Sequence of vanilloid receptor 1 (VR1/TRPV1) (Q8NER1 whole entry): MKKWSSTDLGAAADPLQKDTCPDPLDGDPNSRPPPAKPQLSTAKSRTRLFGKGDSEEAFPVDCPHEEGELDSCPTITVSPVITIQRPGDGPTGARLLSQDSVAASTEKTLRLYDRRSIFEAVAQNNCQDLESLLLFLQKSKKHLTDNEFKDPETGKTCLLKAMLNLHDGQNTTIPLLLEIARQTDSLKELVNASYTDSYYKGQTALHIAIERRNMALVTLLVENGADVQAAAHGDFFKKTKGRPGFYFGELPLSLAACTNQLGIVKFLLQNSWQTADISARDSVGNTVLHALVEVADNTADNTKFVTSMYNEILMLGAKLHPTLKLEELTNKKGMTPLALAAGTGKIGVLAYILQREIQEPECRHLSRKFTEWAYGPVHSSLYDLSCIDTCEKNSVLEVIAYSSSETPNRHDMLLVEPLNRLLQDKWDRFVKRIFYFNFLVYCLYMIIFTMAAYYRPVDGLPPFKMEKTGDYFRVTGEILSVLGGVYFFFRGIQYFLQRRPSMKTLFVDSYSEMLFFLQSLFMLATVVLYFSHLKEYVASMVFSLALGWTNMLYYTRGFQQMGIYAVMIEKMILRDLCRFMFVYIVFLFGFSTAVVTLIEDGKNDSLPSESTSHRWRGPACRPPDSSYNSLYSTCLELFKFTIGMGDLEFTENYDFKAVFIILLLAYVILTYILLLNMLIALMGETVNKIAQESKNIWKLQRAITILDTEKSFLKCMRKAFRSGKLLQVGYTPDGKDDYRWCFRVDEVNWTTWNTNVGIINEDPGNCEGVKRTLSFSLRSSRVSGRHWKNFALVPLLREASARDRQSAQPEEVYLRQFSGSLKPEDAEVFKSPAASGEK

**Q.** How did the “compound-alone effect on Ca2+ influx (agonist / partial agonist)” value turn out when Cc1cccc(-c2nc(C(C)(C)C)sc2CNC(=O)C(C)c2ccc(CNS(C)(=O)=O)c(F)c2)c1 (stereo not drawn) [EX-04, N-((2-(tert-butyl)-4-(m-tolyl)thiazol-5-yl)methyl)-2-(3-fluoro-4-(methylsulfonamidomethyl)phenyl)propanamide] was run?
**A.** pAG (A Ca^2+ influx of 10%-60% reveals a partial agonist (pAG))

**Q.** For CC(C(=O)NCc1sc(C(C)(C)C)nc1-c1cccc(Cl)c1)c1ccc(CO)c(F)c1 (stereo not drawn) [EX-07, N-((2-(tert-butyl)-4-(3-chlorophenyl)thiazol-5-yl)methyl)-2-(3-fluoro-4-(hydroxymethyl)phenyl)propanamide], which “compound-alone effect on Ca2+ influx (agonist / partial agonist)” value is on record?
**A.** AG (a Ca^2+ influx of >60% relates to a pure agonist (AG))

**Q.** Which “compound-alone effect on Ca2+ influx (agonist / partial agonist)” value does the source give for Cc1cccc(-c2nc(C(C)(C)C)sc2CNC(=O)C(C)c2ccc(CO)c(F)c2)c1 (stereo not drawn) [EX-08, N-((2-(tert-butyl)-4-(m-tolyl)thiazol-5-yl)methyl)-2-(3-fluoro-4-(hydroxymethyl)phenyl)propanamide] here?
**A.** AG (a Ca^2+ influx of >60% relates to a pure agonist (AG))

**Q.** CC(C(=O)NCc1oc(C(F)(F)F)nc1-c1cccc(Cl)c1)c1ccc(C2(O)COC2)cc1 (stereo not drawn) [EX-09, N-((4-(3-chlorophenyl)-2-(trifluoromethyl)oxazol-5-yl)methyl)-2-(4-(3-hydroxyoxetan-3-yl)phenyl)propanamide] was tested. Which “compound-alone effect on Ca2+ influx (agonist / partial agonist)” value did it give?
**A.** pAG (A Ca^2+ influx of 10%-60% reveals a partial agonist (pAG))

**Q.** For CC(C(=O)NCc1sc(C(F)(F)F)nc1-c1cccc(Cl)c1)c1ccc(C2(O)COC2)cc1 (stereo not drawn) [EX-10, N-((4-(3-chlorophenyl)-2-(trifluoromethyl)thiazol-5-yl)methyl)-2-(4-(3-hydroxyoxetan-3-yl)phenyl)propanamide], which “compound-alone effect on Ca2+ influx (agonist / partial agonist)” value is on record?
**A.** pAG (A Ca^2+ influx of 10%-60% reveals a partial agonist (pAG))

Same assay, conditions: displacement of capsaicin 100 nM; Ki from IC50 by Cheng-Prusoff equation; read-out: (f) Ki (human) [nM] Cap

**Q.** With CC(C(=O)NCc1sc(C(F)(F)F)nc1-c1cccc(Cl)c1)c1ccc(NCCO)nc1 (single isomer, unassigned) [EX-15, N-((4-(3-chlorophenyl)-2-(trifluoromethyl)thiazol-5-yl)methyl)-2-(6-((2-hydroxyethyl)amino)pyridin-3-yl)propanamide] as the compound, how does the Ki read?
**A.** 0.4 nM

**Q.** Which Ki does the source give for CC(C(=O)NCc1sc(C(F)(F)F)nc1-c1cccc(Cl)c1)c1ccc(NCCO)nc1 (single isomer, unassigned) [EX-16, N-((4-(3-chlorophenyl)-2-(trifluoromethyl)thiazol-5-yl)methyl)-2-(6-((2-hydroxyethyl)amino)pyridin-3-yl)propanamide] here?
**A.** 41.9 nM

**Q.** With CC(C(=O)NCc1oc(C(F)(F)F)nc1-c1cccc(Cl)c1)c1ccc(NCCO)nc1 (single isomer, unassigned) [EX-17, N-((4-(3-chlorophenyl)-2-(trifluoromethyl)oxazol-5-yl)methyl)-2-(6-((2-hydroxyethyl)amino)pyridin-3-yl)propanamide] as the compound, how does the Ki read?
**A.** 0.7 nM

**Q.** Which Ki does the source give for CC(C(=O)NCc1oc(C(F)(F)F)nc1-c1cccc(Cl)c1)c1ccc(NCCO)nc1 (single isomer, unassigned) [EX-18, N-((4-(3-chlorophenyl)-2-(trifluoromethyl)oxazol-5-yl)methyl)-2-(6-((2-hydroxyethyl)amino)pyridin-3-yl)propanamide] here?
**A.** 96.7 nM

**Q.** For CC(C(=O)NCc1sc(C(F)(F)F)nc1-c1cccc(Cl)c1)c1ccc(CCO)c(F)c1 (stereo not drawn) [EX-01, N-((4-(3-chlorophenyl)-2-(trifluoromethyl)thiazol-5-yl)methyl)-2-(3-fluoro-4-(2-hydroxyethyl)phenyl)-propanamide], which Ki is on record?
**A.** 1.4 nM

**Q.** CC(C(=O)NCc1oc(C(F)(F)F)nc1-c1cccc(Cl)c1)c1ccc(CCO)c(F)c1 (stereo not drawn) [EX-02, N-((4-(3-chlorophenyl)-2-(trifluoromethyl)oxazol-5-yl)methyl)-2-(3-fluoro-4-(2-hydroxyethyl)-phenyl)propanamide] was tested. Which Ki did it give?
**A.** 28.4 nM

**Q.** For CC(C(=O)NCc1sc(C(C)(C)C)nc1-c1cccc(Cl)c1)c1ccc(CNS(C)(=O)=O)c(F)c1 (stereo not drawn) [EX-03, N-((2-(tert-butyl)-4-(3-chlorophenyl)thiazol-5-yl)methyl)-2-(3-fluoro-4-(methylsulfonamido-methyl)phenyl)propanamide], which Ki is on record?
**A.** 0.6 nM

**Q.** Cc1cccc(-c2nc(C(C)(C)C)sc2CNC(=O)C(C)c2ccc(CNS(C)(=O)=O)c(F)c2)c1 (stereo not drawn) [EX-04, N-((2-(tert-butyl)-4-(m-tolyl)thiazol-5-yl)methyl)-2-(3-fluoro-4-(methylsulfonamidomethyl)phenyl)propanamide] was tested. Which Ki did it give?
**A.** 1 nM

**Q.** For CC(C(=O)NCc1oc(C(F)(F)F)nc1-c1cccc(Cl)c1)c1ccc(CNS(N)(=O)=O)cc1 (stereo not drawn) [EX-05, N-((4-(3-chlorophenyl)-2-(trifluoromethyl)oxazol-5-yl)methyl)-2-(4-((sulfamoylamino)methyl)-phenyl)propanamide], which Ki is on record?
**A.** 7.5 nM

**Q.** For CC(C(=O)NCc1sc(C(F)(F)F)nc1-c1cccc(Cl)c1)c1ccc(CNS(N)(=O)=O)cc1 (stereo not drawn) [EX-06, N-((4-(3-chlorophenyl)-2-(trifluoromethyl)thiazol-5-yl)methyl)-2-(4-((sulfamoylamino)methyl)-phenyl)propanamide], which Ki is on record?
**A.** 0.7 nM

**Q.** CC(C(=O)NCc1oc(C(F)(F)F)nc1-c1cccc(Cl)c1)c1ccc(C2(O)COC2)cc1 (stereo not drawn) [EX-09, N-((4-(3-chlorophenyl)-2-(trifluoromethyl)oxazol-5-yl)methyl)-2-(4-(3-hydroxyoxetan-3-yl)phenyl)propanamide] was tested. Which Ki did it give?
**A.** 73.8 nM

**Q.** Which Ki does the source give for CC(C(=O)NCc1sc(C(F)(F)F)nc1-c1cccc(Cl)c1)c1ccc(C2(O)COC2)cc1 (stereo not drawn) [EX-10, N-((4-(3-chlorophenyl)-2-(trifluoromethyl)thiazol-5-yl)methyl)-2-(4-(3-hydroxyoxetan-3-yl)phenyl)propanamide] here?
**A.** 8.8 nM

**Q.** With CC(C(=O)NCc1oc(C(F)(F)F)nc1-c1cccc(Cl)c1)c1cnc(CCS(C)(=O)=O)c(F)c1 (stereo not drawn) [EX-11, N-((4-(3-chlorophenyl)-2-(trifluoromethyl)oxazol-5-yl)methyl)-2-(5-fluoro-6-(2-(methylsulfonyl)ethyl)pyridin-3-yl)propanamide] as the compound, how does the Ki read?
**A.** 53.1 nM

**Q.** For CC(C(=O)NCc1sc(C(F)(F)F)nc1-c1cccc(Cl)c1)c1cnc(CCS(C)(=O)=O)c(F)c1 (stereo not drawn) [EX-12, N-((4-(3-chlorophenyl)-2-(trifluoromethyl)thiazol-5-yl)methyl)-2-(5-fluoro-6-(2-(methylsulfonyl)ethyl)pyridin-3-yl)propanamide], which Ki is on record?
**A.** 1.1 nM

**Q.** With CC(C(=O)NCc1oc(C(F)(F)F)nc1-c1cccc(Cl)c1)c1ccc(NCCO)nc1 (stereo not drawn) [EX-13, N-((4-(3-chlorophenyl)-2-(trifluoromethyl)oxazol-5-yl)methyl)-2-(6-((2-hydroxyethyl)amino)pyridin-3-yl)propanamide] as the compound, how does the Ki read?
**A.** 5.2 nM

**Q.** With CC(C(=O)NCc1sc(C(F)(F)F)nc1-c1cccc(Cl)c1)c1ccc(NCCO)nc1 (stereo not drawn) [EX-14, N-((4-(3-chlorophenyl)-2-(trifluoromethyl)thiazol-5-yl)methyl)-2-(6-((2-hydroxyethyl)amino)pyridin-3-yl)propanamide] as the compound, how does the Ki read?
**A.** 0.7 nM

**Q.** With CC(C(=O)NCc1oc(C(F)(F)F)nc1-c1cccc(Cl)c1)c1cnc(CO)c(F)c1 (stereo not drawn) [EX-19, N-((4-(3-chlorophenyl)-2-(trifluoromethyl)oxazol-5-yl)methyl)-2-(5-fluoro-6-(hydroxymethyl)pyridin-3-yl)propanamide] as the compound, how does the Ki read?
**A.** 13.8 nM

**Q.** CC(C(=O)NCc1sc(C(F)(F)F)nc1-c1cccc(Cl)c1)c1cnc(CO)c(F)c1 (stereo not drawn) [EX-20, N-((4-(3-chlorophenyl)-2-(trifluoromethyl)thiazol-5-yl)methyl)-2-(5-fluoro-6-(hydroxymethyl)pyridin-3-yl)propanamide] was tested. Which Ki did it give?
**A.** 0.3 nM

**Q.** Which Ki does the source give for CC(C(=O)NCc1oc(C(F)(F)F)nc1-c1cccc(Cl)c1)c1ccc(CNS(N)(=O)=O)c(F)c1 (stereo not drawn) [EX-23, N-((4-(3-chlorophenyl)-2-(trifluoromethyl)oxazol-5-yl)methyl)-2-(3-fluoro-4-((sulfamoylamino)methyl)phenyl)propanamide] here?
**A.** 4.7 nM

**Q.** CC(C(=O)NCc1sc(C(F)(F)F)nc1-c1cccc(Cl)c1)c1ccc(CNS(N)(=O)=O)c(F)c1 (stereo not drawn) [EX-24, N-((4-(3-chlorophenyl)-2-(trifluoromethyl)thiazol-5-yl)methyl)-2-(3-fluoro-4-((sulfamoylamino)methyl)phenyl)propanamide] was tested. Which Ki did it give?
**A.** 2.35 nM

Same assay, conditions: inhibition <10% @5 μM

**Q.** How did the “(f) Ki (human) Cap: no effect” value turn out when CC(C(=O)NCc1oc(C(F)(F)F)nc1-c1cccc(Cl)c1)c1cnc(CO)c(F)c1 (stereo not drawn) [EX-21, N-((4-(3-chlorophenyl)-2-(trifluoromethyl)oxazol-5-yl)methyl)-2-(5-fluoro-6-(hydroxymethyl)pyridin-3-yl)propanamide] was run?
**A.** ne (ne=no effect (<10% @5 μM))

**Q.** Which “(f) Ki (human) Cap: no effect” value does the source give for CC(C(=O)NCc1oc(C(F)(F)F)nc1-c1cccc(Cl)c1)c1cnc(CO)c(F)c1 (stereo not drawn) [EX-22, N-((4-(3-chlorophenyl)-2-(trifluoromethyl)oxazol-5-yl)methyl)-2-(5-fluoro-6-(hydroxymethyl)pyridin-3-yl)propanamide] here?
**A.** ne (ne=no effect (<10% @5 μM))

From patent US9771359B1, “Substituted oxazole- and thiazole-based carboxamide and urea derivatives as vanilloid receptor ligands II” (MEDIFRON DBT INC., priority 2014, dated 2017)
